Literature values, collected in PubChem BioAssay AID1259409 (Chemical Carcinogenesis Research Information System (CCRIS), 2018).

Test system: rodent chemically induced tumor inhibition, incidence and multiplicity
Test: CCRIS tumor inhibitor studies
Conditions: Carcinogen: AZOXYMETHANE, 25843-45-2, Dose [Inhibitor]: 0, Route [Inhibitor]: ORAL, Species: RAT, Strain/Sex: F344/MALE, Promoter: NONE USED

## CN1C(C(=O)Nc2ccccn2)=C(O)c2ccccc2S1(=O)=O
150 PPM IN DIET BEGINNING 1 WK POST CARCINOGEN DOSE FOR DURATION OF STUDY (STUDY DURATION: 56 WK), Target Tissue: Type of Lesion: COLON: ADENOMA, Dose [Carcinogen]: 29.6 MG/KG IN NORMAL SALINE ONCE
  tumour outcome (control, treated, inhibition, significance): 11/30 (37%), 9/30 (30%), 19%, not calculated
150 PPM IN DIET BEGINNING 1 WK POST CARCINOGEN DOSE FOR DURATION OF STUDY (STUDY DURATION: 56 WK), Target Tissue: Type of Lesion: SMALL INTESTINE: ADENOCARCINOMA, Dose [Carcinogen]: 29.6 MG/KG IN NORMAL SALINE ONCE
  tumour outcome (control, treated, inhibition, significance): 10/30 (33%), 8/30 (27%), 20%, not calculated
150 PPM IN DIET BEGINNING 1 WK POST CARCINOGEN DOSE FOR DURATION OF STUDY (STUDY DURATION: 56 WK), Target Tissue: Type of Lesion: SMALL INTESTINE: ADENOMA, Dose [Carcinogen]: 29.6 MG/KG IN NORMAL SALINE ONCE
  tumour outcome (control, treated, inhibition, significance): 1/30 (3%), 1/30 (3%), 0%, not calculated
150 PPM IN DIET FOR 29 WK BEGINNING 1 WK POST CARCINOGEN TREATMENT (STUDY DURATION: 32 WK), Target Tissue: Type of Lesion: COLON: ADENOMA, Dose [Carcinogen]: 15 MG/KG BW 1/WK FOR 2 WK
  tumour outcome (control, treated, inhibition, significance): 77%, 33%, 57%, p<0.05
150 PPM IN DIET FOR 29 WK BEGINNING 1 WK POST CARCINOGEN TREATMENT (STUDY DURATION: 32 WK), Target Tissue: Type of Lesion: COLON: CARCINOMA, Dose [Carcinogen]: 15 MG/KG BW 1/WK FOR 2 WK
  tumour outcome (control, treated, inhibition, significance): 53%, 23%, 57%, p<0.05
200 PPM IN DIET BEGINNING 1 WK PRIOR TO CARCINOGEN TREATMENT FOR DURATION OF STUDY (STUDY DURATION: 54 WK), Target Tissue: Type of Lesion: COLON: ADENOCARCINOMA, Dose [Carcinogen]: 15 MG/KG/BW 1/WK FOR 2 WK
  tumour outcome (control, treated, inhibition, significance): 58%, 33%, 43%, p<0.05
200 PPM IN DIET BEGINNING 1 WK PRIOR TO CARCINOGEN TREATMENT FOR DURATION OF STUDY (STUDY DURATION: 54 WK), Target Tissue: Type of Lesion: COLON: ADENOMA., Dose [Carcinogen]: 15 MG/KG/BW 1/WK FOR 2 WK
  tumour outcome (control, treated, inhibition, significance): 6%, 8%, -33%, not calculated
200 PPM IN DIET BEGINNING PRIOR TO CARCINOGEN DOSE AND CONTINUING FOR DURATION OF STUDY (STUDY DURATION: 54 WK), Target Tissue: Type of Lesion: COLON: ADENOCARCINOMA, Dose [Carcinogen]: 15 MG/KG 1/WK FOR 2 WK
  tumour outcome (control, treated, inhibition, significance): 72%, 33%, 54%, p<0.001
200 PPM IN DIET BEGINNING PRIOR TO CARCINOGEN DOSE AND CONTINUING FOR DURATION OF STUDY (STUDY DURATION: 54 WK), Target Tissue: Type of Lesion: COLON: ADENOMA, Dose [Carcinogen]: 15 MG/KG 1/WK FOR 2 WK
  tumour outcome (control, treated, inhibition, significance): 14%, 3%, 79%, not calculated
200 PPM IN DIET BEGINNING PRIOR TO CARCINOGEN DOSE AND CONTINUING FOR DURATION OF STUDY (STUDY DURATION: 54 WK), Target Tissue: Type of Lesion: SMALL INTESTINE: ADENOCARCINOMA, Dose [Carcinogen]: 15 MG/KG 1/WK FOR 2 WK
  tumour outcome (control, treated, inhibition, significance): 50%, 17%, 66%, p<0.01
200 PPM IN DIET BEGINNING PRIOR TO CARCINOGEN DOSE AND CONTINUING FOR DURATION OF STUDY (STUDY DURATION: 54 WK), Target Tissue: Type of Lesion: SMALL INTESTINE: ADENOMA, Dose [Carcinogen]: 15 MG/KG 1/WK FOR 2 WK
  tumour outcome (control, treated, inhibition, significance): 3%, 0%, 100%, not calculated
200 PPM IN DIET FOR 56 WK BEGINNING 2 WK PRIOR TO CARCINOGEN TREATMENT (STUDY DURATION: 56 WK), Target Tissue: Type of Lesion: COLON(DISTAL): TUMOR, Dose [Carcinogen]: 15 MG/KG 1/WK FOR 2 WK
  tumour outcome (control, treated, inhibition, significance): 52%, 35%, 33%, p<0.05
200 PPM IN DIET FOR 56 WK BEGINNING 2 WK PRIOR TO CARCINOGEN TREATMENT (STUDY DURATION: 56 WK), Target Tissue: Type of Lesion: COLON(PROXIMAL): TUMOR, Dose [Carcinogen]: 15 MG/KG 1/WK FOR 2 WK
  tumour outcome (control, treated, inhibition, significance): 38%, 15%, 61%, p<0.01
200 PPM IN DIET FOR 56 WK BEGINNING 2 WK PRIOR TO CARCINOGEN TREATMENT (STUDY DURATION: 56 WK), Target Tissue: Type of Lesion: SMALL INTESTINE(DISTAL): TUMOR, Dose [Carcinogen]: 15 MG/KG 1/WK FOR 2 WK
  tumour outcome (control, treated, inhibition, significance): 12%, 6%, 50%, not significant
200 PPM IN DIET FOR 56 WK BEGINNING 2 WK PRIOR TO CARCINOGEN TREATMENT (STUDY DURATION: 56 WK), Target Tissue: Type of Lesion: SMALL INTESTINE(PROXIMAL): TUMOR, Dose [Carcinogen]: 15 MG/KG 1/WK FOR 2 WK
  tumour outcome (control, treated, inhibition, significance): 33%, 11%, 67%, p<0.05
